Data from patent US20080171783A1, “COMPOSITIONS AND METHODS FOR TREATING HYPERPROLIFERATIVE DISEASE” (Migenix Inc., priority 2006, published 2008).

Biological target: T1, Calf polymerase alpha (Bos taurus, UniProt A0AAA9TD94)
T1 construct: purchased Replizyme Ltd (Heslington, York, UK)
T1 sequence (A0AAA9TD94 1-1441): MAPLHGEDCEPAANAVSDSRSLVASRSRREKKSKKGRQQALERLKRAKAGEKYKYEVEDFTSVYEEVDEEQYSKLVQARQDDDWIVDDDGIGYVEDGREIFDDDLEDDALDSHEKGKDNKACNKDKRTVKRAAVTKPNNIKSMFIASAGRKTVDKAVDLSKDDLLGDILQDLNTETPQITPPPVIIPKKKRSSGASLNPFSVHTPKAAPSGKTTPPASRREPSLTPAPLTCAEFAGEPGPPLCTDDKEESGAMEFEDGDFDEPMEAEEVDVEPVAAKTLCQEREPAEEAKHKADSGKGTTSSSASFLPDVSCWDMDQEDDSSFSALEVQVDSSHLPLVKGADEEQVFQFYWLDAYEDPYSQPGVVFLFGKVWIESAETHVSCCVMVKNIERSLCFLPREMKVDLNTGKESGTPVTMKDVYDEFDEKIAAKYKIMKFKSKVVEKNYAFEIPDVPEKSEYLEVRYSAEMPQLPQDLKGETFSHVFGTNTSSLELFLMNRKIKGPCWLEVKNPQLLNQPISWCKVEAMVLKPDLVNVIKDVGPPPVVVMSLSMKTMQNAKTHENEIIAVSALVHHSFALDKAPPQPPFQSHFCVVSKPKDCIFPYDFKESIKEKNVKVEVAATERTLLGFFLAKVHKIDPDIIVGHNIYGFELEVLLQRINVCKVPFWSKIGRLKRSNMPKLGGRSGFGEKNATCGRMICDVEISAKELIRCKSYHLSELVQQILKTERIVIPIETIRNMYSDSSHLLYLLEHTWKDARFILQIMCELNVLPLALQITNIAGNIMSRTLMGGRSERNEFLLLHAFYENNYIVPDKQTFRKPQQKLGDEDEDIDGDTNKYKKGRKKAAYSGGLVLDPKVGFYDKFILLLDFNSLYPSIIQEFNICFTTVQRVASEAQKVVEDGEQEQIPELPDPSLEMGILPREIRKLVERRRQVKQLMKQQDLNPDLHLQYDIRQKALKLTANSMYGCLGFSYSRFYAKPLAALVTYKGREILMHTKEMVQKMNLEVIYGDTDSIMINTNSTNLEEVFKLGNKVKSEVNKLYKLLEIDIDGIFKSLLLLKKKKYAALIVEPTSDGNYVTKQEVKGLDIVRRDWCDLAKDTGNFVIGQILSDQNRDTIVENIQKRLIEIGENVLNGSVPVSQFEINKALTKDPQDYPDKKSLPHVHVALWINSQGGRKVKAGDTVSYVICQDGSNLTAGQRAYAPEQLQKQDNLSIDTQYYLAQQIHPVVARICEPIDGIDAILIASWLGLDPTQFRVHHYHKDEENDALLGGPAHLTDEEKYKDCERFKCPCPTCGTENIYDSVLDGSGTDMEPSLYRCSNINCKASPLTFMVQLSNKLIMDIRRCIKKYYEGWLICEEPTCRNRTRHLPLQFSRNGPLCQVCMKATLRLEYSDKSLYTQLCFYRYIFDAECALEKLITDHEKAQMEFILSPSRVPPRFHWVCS
Assay: Calf polymerase alpha inhibition (Replizyme kit)
Assay type: biochemical
Conditions: for % Inhibition / inhibition at 10 µM: at 10 μM, single point screening
Experimental: Calf polymerase alpha and human polymerase alpha investigations were performed with a kit available from Replizyme Ltd (Heslington, York, UK).

SMILES | % Inhibition | inhibition at 10 µM | also measured
Cc1ccc(NC(=O)[C@H](CCCCN)NC(=O)NC2c3ccccc3-c3ccccc32)cc1 [Compound 126, (S)-6-AMINO-2-[3-(9H-FLUOREN-9-YL)-UREIDO]-HEXANOIC ACID P-TOLYLAMIDE] | 98% |  | 
Cc1ccc(NC(=O)[C@H](CCCCN)NC(=O)Nc2cccc(-c3ccccc3)c2)cc1 [Compound 127, (S)-6-AMINO-2-(3-BIPHENYL-3-YL-UREIDO)-HEXANOIC ACID P-TOLYLAMIDE] | 45% |  | 
NCCCC[C@@H](NC(=O)Nc1ccc(-c2ccccc2)cc1)C(=O)Nc1ccc(C2CCCCC2)cc1 [Compound 142, (R)-6-AMINO-2-(3-BIPHENYL-4-YL-UREIDO)-HEXANOIC ACID (4-CYCLOHEXYL-PHENYL)-AMIDE] |  | 103% | 
Cc1ccc(NC(=O)[C@H](Cc2ccc(CN)cc2)NC(=O)Nc2ccc(-c3ccccc3)cc2)cc1 [Compound 145, (S)-3-(4-AMINOMETHYL-PHENYL)-2-(3-BIPHENYL-4-YL-UREIDO)-N-P-TOLYL-PROPIONAMIDE] | 102% |  | 
Cc1ccc(NC(=O)[C@H](Cc2ccc(CN)cc2)NC(=O)Nc2ccc(OCc3ccccc3)cc2)cc1 [Compound 146, (S)-3-(4-AMINOMETHYL-PHENYL)-2-[3-(4-BENZYLOXY-PHENYL)-UREIDO]-N-P-TOLYL-PROPIONAMIDE] | 102% |  | 
O=C(CC1CNCCN1C(=O)Nc1ccc(OCc2ccccc2)cc1)Nc1ccc(C2CCCCC2)cc1 (stereo not drawn) [Compound 163, 2-[(4-CYCLOHEXYL-PHENYLCARBAMOYL)-METHYL]-PIPERAZINE-1-CARBOXYLIC ACID (4-BENZYLOXY-PHENYL)-AMIDE] |  | 102% | 
NCCCC[C@@H](NC(=O)Nc1ccc(OCc2ccccc2)cc1)C(=O)Nc1ccc(C2CCCCC2)cc1 [Compound 166, (R)-6-AMINO-2-[3-(4-BENZYLOXY-PHENYL)-UREIDO]-HEXANOIC ACID (4-CYCLOHEXYL-PHENYL)-AMIDE] |  | 102% | 
Cc1ccc(NC(=O)[C@H](CCCCNC(=O)CN)NC(=O)OCC2c3ccccc3-c3ccccc32)cc1 [Compound 176, (S)-[5-(2-AMINO-ACETYLAMINO)-1-P-TOLYLCARBAMOYL-PENTYL]-CARBAMIC ACID 9H-FLUOREN-9-YLMETHYL ESTER] | 68% |  | 
CC(=O)NCCCC[C@H](NC(=O)OCC1c2ccccc2-c2ccccc21)C(=O)Nc1ccc(C)cc1 [Compound 181, (S)-(5-ACETYLAMINO-1-P-TOLYLCARBAMOYL-PENTYL)-CARBAMIC ACID 9H-FLUOREN-9-YLMETHYL ESTER] | 18.5% |  | 
Cc1ccc(NC(=O)CC2CN(C(=O)[C@H](C)N)CCN2C(=O)OCC2c3ccccc3-c3ccccc32)cc1 (stereo partly drawn) [Compound 184, 4-((S)-2-AMINO-PROPIONYL)-2-(P-TOLYLCARBAMOYL-METHYL)-PIPERAZINE-1-CARBOXYLIC ACID 9H-FLUOREN-9-YLMETHYL ESTER] | 38% |  | 
CCNCC(=O)N1CCN(C(=O)OCC2c3ccccc3-c3ccccc32)C(CC(=O)Nc2ccc(C)cc2)C1 (stereo not drawn) [Compound 187, 4-(2-ETHYLAMINO-ACETYL)-2-(P-TOLYLCARBAMOYL-METHYL)-PIPERAZINE-1-CARBOXYLIC ACID 9H-FLUOREN-9-YLMETHYL ESTER] | 33.5% |  | 
CNCC(=O)NCCC[C@H](NC(=O)OCC1c2ccccc2-c2ccccc21)C(=O)Nc1ccc(C)cc1 [Compound 223, (S)-[4-(2-METHYLAMINO-ACETYLAMINO)-1-P-TOLYLCARBAMOYL-BUTYL]-CARBAMIC ACID 9H-FLUOREN-9-YLMETHYL ESTER] | 22% |  | 
Cc1ccc(NC(=O)[C@H](CCCCN)NC(=O)Nc2ccc(NCc3ccc(F)cc3)cc2)cc1 [Compound 225, (S)-6-AMINO-2-{3-[4-(4-FLUORO-BENZYLAMINO)-PHENYL]-UREIDO}-HEXANOIC ACID P-TOLYLAMIDE] | 62% |  | 
Cc1cc2cc(NC(=O)[C@H](CCNC(=O)CN)NC(=O)Nc3ccc4c(c3)Cc3ccccc3-4)ccc2[nH]1 [Compound 240, (S)-4-(2-AMINO-ACETYLAMINO)-2-[3-(9H-FLUOREN-2-YL)-UREIDO]-N-(2-METHYL-1H-INDOL-5-YL)-BUTYRAMIDE] |  | 63% | 
Cc1ccc(NC(=O)[C@H](CCCCN)NC(=O)Nc2ccc(CCc3ccccc3)cc2)cc1 [Compound 243, (S)-6-AMINO-2-[3-(4-PHENETHYL-PHENYL)-UREIDO]-HEXANOIC ACID P-TOLYLAMIDE] | 0% |  | 
Cc1ccc(NC(=O)[C@H](CCCCN)NC(=O)Nc2ccc(OCc3ccccc3F)cc2)cc1 [Compound 248, (S)-6-AMINO-2-{3-[4-(2-FLUORO-BENZYLOXY)-PHENYL]-UREIDO}-HEXANOIC ACID P-TOLYLAMIDE] | 61% |  | 
Cc1ccc(NC(=O)[C@H](CCCCN)NC(=O)Nc2ccc(OCc3cccc(F)c3)cc2)cc1 [Compound 249, (S)-6-AMINO-2-{3-[4-(3-FLUORO-BENZYLOXY)-PHENYL]-UREIDO}-HEXANOIC ACID P-TOLYLAMIDE] | 67% |  | 
Cc1ccc(NC(=O)[C@H](CCCCN)NC(=O)Nc2ccc(OCc3ccc(F)cc3)cc2)cc1 [Compound 250, (S)-6-AMINO-2-{3-[4-(4-FLUORO-BENZYLOXY)-PHENYL]-UREIDO}-HEXANOIC ACID P-TOLYLAMIDE] | 57% |  | 
Cc1ccc(NC(=O)[C@H](CCCCN)NC(=O)Nc2ccc(OCc3cccnc3)cc2)cc1 [Compound 261, (S)-6-AMINO-2-{3-[4-(PYRIDIN-3-YLMETHOXY)-PHENYL]-UREIDO}-HEXANOIC ACID P-TOLYLAMIDE] | 55% |  | 
NCCCCCCNC(=O)[C@H](Cc1ccccc1)NC(=O)Nc1ccc(OCc2ccccc2)cc1 [Compound 263, (S)—N-(6-AMINO-HEXYL)-2-[3-(4-BENZYLOXY-PHENYL)-UREIDO]-3-PHENYL-PROPIONAMIDE] |  | 31% | 
Cc1ccc(NC(=O)[C@H](CNC(=O)CN)NC(=O)Nc2ccc(OCc3ccccc3)cc2)cc1 [Compound 268, (S)-3-(2-AMINO-ACETYLAMINO)-2-[3-(4-BENZYLOXY-PHENYL)-UREIDO]-N-P-TOLYL-PROPIONAMIDE] | 62.7% |  | 
Cc1ccc(NC(=O)CN(CCCCN)C(=O)Nc2ccc(OCc3ccccc3)cc2)cc1 [Compound 278, 2-[1-(4-AMINO-BUTYL)-3-(4-BENZYLOXY-PHENYL)-UREIDO]-N-P-TOLYL-ACETAMIDE] | 101% |  | 
Cc1ccc(NC(=O)[C@H](CCCCN)NC(=O)Nc2ccc(OCc3ccncc3)cc2)cc1 [Compound 279, (S)-6-AMINO-2-{3-[4-(PYRIDIN-4-YLMETHOXY)-PHENYL]-UREIDO}-HEXANOIC ACID P-TOLYLAMIDE] | 15% |  | 
NCCCCN(CC(=O)Nc1cccc2[nH]ccc12)C(=O)Nc1ccc(OCc2ccccc2)cc1 [Compound 281, 2-[1-(4-AMINO-BUTYL)-3-(4-BENZYLOXY-PHENYL)-UREIDO]-N-(1H-INDOL-4-YL)-ACETAMIDE] |  | 30.5% | IC50 (dose response): 9.2 µM
Cc1ccc(NC(=O)C(CCCCN)NC(=O)OCC2c3ccccc3-c3ccccc32)cn1 (stereo not drawn) [Compound 294, [5-AMINO-1-(6-METHYL-PYRIDIN-3-YLCARBAMOYL)-PENTYL]-CARBAMIC ACID 9H-FLUOREN-9-YLMETHYL ESTER] |  | 19% | 
NCCCCCCNC(=O)[C@@H](NC(=O)OCC1c2ccccc2-c2ccccc21)c1ccccc1 [Compound 313, (S)-[(6-AMINO-HEXYLCARBAMOYL)-PHENYL-METHYL]-CARBAMIC ACID 9H-FLUOREN-9-YLMETHYL ESTER] |  | 43% | 
